Measured values published in PubChem BioAssay (NCI).
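Test compounds were applied to cells in 96-well plates for 48 hours at 5 doses. At the GI50, growth is halved. At the TGI there is no net growth.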

Experiments:
Assay in all cases: inhibition of tumour cell growth, NCI panel, 48 h
A498 renal = system: A498 renal
IGROV1 ovarian = system: IGROV1 ovarian
HL-60(TB) leukemia = system: HL-60(TB) leukemia
TK-10 renal = system: TK-10 renal
DU-145 prostate = system: DU-145 prostate
LOX IMVI melanoma = system: LOX IMVI melanoma
NCI-H522 lung = system: NCI-H522 lung
NCI-H460 lung = system: NCI-H460 lung
CCRF-CEM leukemia = system: CCRF-CEM leukemia
UACC-257 melanoma = system: UACC-257 melanoma
HOP-62 NSCLC = system: HOP-62 NSCLC
SK-MEL-5 melanoma = system: SK-MEL-5 melanoma
T-47D breast = system: T-47D breast
U251 CNS = system: U251 CNS
HCC-2998 colon = system: HCC-2998 colon
786-0 renal = system: 786-0 renal
OVCAR-8 ovarian = system: OVCAR-8 ovarian
SNB-19 CNS = system: SNB-19 CNS
HS 578T breast = system: HS 578T breast
NCI/ADR-RES ovarian = system: NCI/ADR-RES ovarian
MDA-MB-435 = system: MDA-MB-435
NCI-H23 lung = system: NCI-H23 lung
RPMI-8226 leukemia = system: RPMI-8226 leukemia
SW-620 colon = system: SW-620 colon
OVCAR-4 ovarian = system: OVCAR-4 ovarian
RXF 393 renal = system: RXF 393 renal
MCF7 breast = system: MCF7 breast
K-562 leukemia = system: K-562 leukemia
HCT-116 colon = system: HCT-116 colon
MDA-MB-231 breast = system: MDA-MB-231 breast
SK-MEL-2 melanoma = system: SK-MEL-2 melanoma
SF-295 CNS = system: SF-295 CNS
M14 melanoma = system: M14 melanoma
MOLT-4 leukemia = system: MOLT-4 leukemia
SF-268 CNS = system: SF-268 CNS
SK-MEL-28 melanoma = system: SK-MEL-28 melanoma
UACC-62 melanoma = system: UACC-62 melanoma
SR leukemia = system: SR leukemia
EKVX NSCLC = system: EKVX NSCLC
A549 NSCLC = system: A549 NSCLC
UO-31 renal = system: UO-31 renal
SN12C renal = system: SN12C renal
HOP-92 NSCLC = system: HOP-92 NSCLC
SNB-75 CNS = system: SNB-75 CNS
SF-539 CNS = system: SF-539 CNS
SK-OV-3 ovarian = system: SK-OV-3 ovarian
COLO 205 colon = system: COLO 205 colon
ACHN renal = system: ACHN renal
HT29 colon = system: HT29 colon
OVCAR-5 ovarian = system: OVCAR-5 ovarian
BT-549 breast = system: BT-549 breast
NCI-H226 lung = system: NCI-H226 lung
HCT-15 colon = system: HCT-15 colon
CAKI-1 renal = system: CAKI-1 renal
OVCAR-3 ovarian = system: OVCAR-3 ovarian
KM12 colon = system: KM12 colon
MALME-3M melanoma = system: MALME-3M melanoma

SMILES: CCN1CCN(CC(=O)Nc2nc3ccc(NCc4ccc(C)cc4)cc3s2)CC1
- GI50 (A498 renal): 5.27 µM
- TGI (A498 renal): 11.3 µM
- GI50 (IGROV1 ovarian): 6.14 µM
- TGI (IGROV1 ovarian): 14.1 µM
- GI50 (HL-60(TB) leukemia): 1.05 µM
- TGI (HL-60(TB) leukemia): 2.25 µM
- GI50 (TK-10 renal): 7.54 µM
- TGI (TK-10 renal): 15.1 µM
- GI50 (DU-145 prostate): 7.97 µM
- TGI (DU-145 prostate): 16.4 µM
- GI50 (LOX IMVI melanoma): 0.94 µM
- TGI (LOX IMVI melanoma): 1.86 µM
- GI50 (NCI-H522 lung): 4.45 µM
- TGI (NCI-H522 lung): 11.5 µM
- GI50 (NCI-H460 lung): 2.12 µM
- TGI (NCI-H460 lung): 7.71 µM
- GI50 (CCRF-CEM leukemia): 1.49 µM
- TGI (CCRF-CEM leukemia): 6.3 µM
- GI50 (UACC-257 melanoma): 3.33 µM
- TGI (UACC-257 melanoma): 11.3 µM
- GI50 (HOP-62 NSCLC): 2.02 µM
- TGI (HOP-62 NSCLC): 8.03 µM
- GI50 (SK-MEL-5 melanoma): 0.975 µM
- TGI (SK-MEL-5 melanoma): 2.01 µM
- GI50 (T-47D breast): 1.6 µM
- TGI (T-47D breast): 7.29 µM
- GI50 (U251 CNS): 2.77 µM
- TGI (U251 CNS): 9.14 µM
- GI50 (HCC-2998 colon): 6.5 µM
- TGI (HCC-2998 colon): 14.6 µM
- GI50 (786-0 renal): 4.24 µM
- TGI (786-0 renal): 10.9 µM
- GI50 (OVCAR-8 ovarian): 6.66 µM
- TGI (OVCAR-8 ovarian): 16.5 µM
- GI50 (SNB-19 CNS): 5.98 µM
- TGI (SNB-19 CNS): 13.5 µM
- GI50 (HS 578T breast): 5.12 µM
- TGI (HS 578T breast): 15.9 µM
- GI50 (NCI/ADR-RES ovarian): 5.98 µM
- TGI (NCI/ADR-RES ovarian): 21.6 µM
- GI50 (MDA-MB-435): 1.05 µM
- TGI (MDA-MB-435): 2.3 µM
- GI50 (NCI-H23 lung): 5.91 µM
- TGI (NCI-H23 lung): 13.9 µM
- GI50 (RPMI-8226 leukemia): 1.09 µM
- TGI (RPMI-8226 leukemia): 3.34 µM
- GI50 (SW-620 colon): 1.6 µM
- TGI (SW-620 colon): 6.07 µM
- GI50 (OVCAR-4 ovarian): 6.24 µM
- TGI (OVCAR-4 ovarian): 16.2 µM
- GI50 (RXF 393 renal): 1.99 µM
- TGI (RXF 393 renal): 8.5 µM
- GI50 (MCF7 breast): 1.81 µM
- TGI (MCF7 breast): 8.41 µM
- GI50 (K-562 leukemia): 0.949 µM
- TGI (K-562 leukemia): 2.09 µM
- GI50 (HCT-116 colon): 1.53 µM
- TGI (HCT-116 colon): 5.32 µM
- GI50 (MDA-MB-231 breast): 2.72 µM
- TGI (MDA-MB-231 breast): 10 µM
- GI50 (SK-MEL-2 melanoma): 5.53 µM
- TGI (SK-MEL-2 melanoma): 12.8 µM
- GI50 (SF-295 CNS): 2.4 µM
- TGI (SF-295 CNS): 9.06 µM
- GI50 (M14 melanoma): 1.14 µM
- TGI (M14 melanoma): 2.19 µM
- GI50 (MOLT-4 leukemia): 1.59 µM
- TGI (MOLT-4 leukemia): 5.99 µM
- GI50 (SF-268 CNS): 5.76 µM
- TGI (SF-268 CNS): 16.5 µM
- GI50 (SK-MEL-28 melanoma): 0.929 µM
- TGI (SK-MEL-28 melanoma): 1.92 µM
- GI50 (UACC-62 melanoma): 1.01 µM
- TGI (UACC-62 melanoma): 2.06 µM
- GI50 (SR leukemia): 1.8 µM
- TGI (SR leukemia): 8.37 µM
- GI50 (EKVX NSCLC): 5.67 µM
- TGI (EKVX NSCLC): 13.8 µM
- GI50 (A549 NSCLC): 2.29 µM
- TGI (A549 NSCLC): 8.61 µM
- GI50 (UO-31 renal): 2.57 µM
- TGI (UO-31 renal): 10.8 µM
- GI50 (SN12C renal): 4.11 µM
- TGI (SN12C renal): 11.1 µM
- GI50 (HOP-92 NSCLC): 0.504 µM
- TGI (HOP-92 NSCLC): 2.34 µM
- GI50 (SNB-75 CNS): 2.69 µM
- TGI (SNB-75 CNS): 9.42 µM
- GI50 (SF-539 CNS): 1.5 µM
- TGI (SF-539 CNS): 4.3 µM
- GI50 (SK-OV-3 ovarian): 4.12 µM
- TGI (SK-OV-3 ovarian): 12.4 µM
- GI50 (COLO 205 colon): 1.03 µM
- TGI (COLO 205 colon): 2.1 µM
- GI50 (ACHN renal): 6.06 µM
- TGI (ACHN renal): 12.3 µM
- GI50 (HT29 colon): 1.27 µM
- TGI (HT29 colon): 3.48 µM
- GI50 (OVCAR-5 ovarian): 5.63 µM
- TGI (OVCAR-5 ovarian): 13.4 µM
- GI50 (BT-549 breast): 6.45 µM
- TGI (BT-549 breast): 19.3 µM
- GI50 (NCI-H226 lung): 7.77 µM
- TGI (NCI-H226 lung): 18.8 µM
- GI50 (HCT-15 colon): 1.04 µM
- TGI (HCT-15 colon): 2.47 µM
- GI50 (CAKI-1 renal): 3.48 µM
- TGI (CAKI-1 renal): 10.5 µM
- GI50 (OVCAR-3 ovarian): 4.93 µM
- TGI (OVCAR-3 ovarian): 13.7 µM
- GI50 (KM12 colon): 5.67 µM
- TGI (KM12 colon): 13.8 µM
- GI50 (MALME-3M melanoma): 1.04 µM
- TGI (MALME-3M melanoma): 2.43 µM
